Laboratory results from US7482328B2, “Antimicrobial polypeptide and utilization thereof” (Toagosei Co., Ltd., priority 2002, dated 2009).
No end group written: not given here.

Tests used:
Format in all cases: cell-based
[1] = system: E. coli
Description: (§1) Regarding the antimicrobial polypeptide of the present invention (samples 1 to 33) and the polypeptides of comparative samples 1 to 3, the antimicrobial activities (minimum inhibitory concentration: MIC) with respect to gram-negative bacteria (E. coli) and gram-positive bacteria (S. aureus) were determined by a liquid medium dilution technique using a 96-well microplate.
(§2) More specifically, liquid bouillon media (“NUTRIENT BROTH Dehydraged” manufactured by DIFCO) in a polypeptide concentration of 500, 250, 125, 62.5, 31.3, 15.6, 7.8, 3.9, 1.9, 1.0 and 0.5 μM were prepared, and filled in a 96-well microplate. On the other hand, bacteria suspension (about 2×10^6 cells/mL) that had been stationary cultured at 37° C. for 18 hours with LB Broth, Lennox (manufactured by DIFCO) were inoculated to each well of the 96-well microplate in an equal amount to that of the pharmaceutical solution (the above-described polypeptide-containing bouillon medium). After inoculation, culture was started in an incubator at 37° C., and it was examined based on the turbidity after 24 hours and 48 hours whether or not bacteria are present. The minimum of the polypeptide concentrations in which no increase in the turbidity caused by bacteria at the time of measurement was observed was defined as MIC in this example.
(§3) The unit of MIC in Table 2 is μM. […]

[2] = system: S. aureus
Description: as §1, §2, §3

[3] = system: Bacillus brevis IFO15304
Description: as §2
(§4) Next, regarding the polypeptides of the samples 16, 17, 10, 14, and 20, the same antimicrobial test (MIC measurement test) as in Example 2 was performed with respect to various bacteria (see Table 3), and the antimicrobial spectra of these polypeptides were evaluated.

[4] = system: Bacillus cereus IFO15305; details: IFO15305, 24 h
Description: as §2, §4

[5] = system: Bacillus cereus IFO3001; details: IFO3001, 24 h
Description: as §2, §4

[6] = system: Bacillus pumilus IFO3813
Description: as §2, §4

[7] = system: Bacillus subtilis ATCC6633; details: ATCC6633, 24 h
Description: as §2, §4

[8] = system: Bacillus subtilis IFO3134; details: IFO3134, 24 h
Description: as §2, §4

[9] = system: Escherichia coli IFO12713; details: IFO12713, 24 h
Description: as §2, §4

[10] = system: Escherichia coli O157:H7 sakai; details: O157:H7, 24 h
Description: as §2, §4

[11] = system: Klebsiella pneumoniae ATCC4352; details: ATCC4352, 24 h
Description: as §2, §4

[12] = system: Micrococcus luteus IFO12708; details: IFO12708, 24 h
Description: as §2, §4

[13] = system: Proteus vulgaris ATCC13315; details: ATCC13315, 24 h
Description: as §2, §4

[14] = system: Pseudomonas aeruginosa ATCC10145; details: ATCC10145, 24 h
Description: as §2, §4

[15] = system: Pseudomonas aeruginosa IFO3080; details: IFO3080, 24 h
Description: as §2, §4

[16] = system: Salmonella enteritidis IFO3313; details: IFO3313, 24 h
Description: as §2, §4

[17] = system: Salmonella typhimurium IFO1324; details: murium IFO1324, 24 h
Description: as §2, §4

[18] = system: Staphylococcus aureus COL (MRSA)
Description: as §2, §4

[19] = system: Staphylococcus aureus IFO12732; details: IFO12732, 24 h
Description: as §2, §4

[20] = system: Staphylococcus aureus IID1677 (MRSA); details: IID1677, 24 h
Description: as §2, §4

[21] = system: Staphylococcus aureus RN450 (*MSSA); details: RN450 (*, 24 h)
Description: as §2, §4

[22] = system: gram-negative bacteria (E. coli) and gram-positive bacteria (S. aureus); test: antimicrobial test of Example 2, results summed up in words; details: summary of Table 2, E. coli and S. aureus
Description: as §1, §2

| Sequence | antimicrobial activity (MIC) E. coli after 48h [1] [µM] | antimicrobial activity (MIC) S. aureus after 24h [2] [µM] | antimicrobial activity (MIC) S. aureus after 48h [2] [µM] | antimicrobial activity after 24 hours: MIC [3] [µM] | antimicrobial activity after 24 hours: MIC [4] [µM] | antimicrobial activity after 24 hours: MIC [5] [µM] | antimicrobial activity after 24 hours: MIC [6] [µM] | antimicrobial activity after 24 hours: MIC [7] [µM] | antimicrobial activity after 24 hours: MIC [8] [µM] | antimicrobial activity after 24 hours: MIC [9] [µM] | antimicrobial activity after 24 hours: MIC [10] [µM] | antimicrobial activity after 24 hours: MIC [11] [µM] | antimicrobial activity after 24 hours: MIC [12] [µM] | antimicrobial activity after 24 hours: MIC [13] [µM] | antimicrobial activity after 24 hours: MIC [14] [µM] | antimicrobial activity after 24 hours: MIC [15] [µM] | antimicrobial activity after 24 hours: MIC [16] [µM] | antimicrobial activity after 24 hours: MIC [17] [µM] | antimicrobial activity after 24 hours: MIC [18] [µM] | antimicrobial activity after 24 hours: MIC [21] [µM] | further results |
| --- | --- | --- | --- | --- | --- | --- | --- | --- | --- | --- | --- | --- | --- | --- | --- | --- | --- | --- | --- | --- | --- |
| RIRKKLRRIRKKLR [sample 17, RIRKKLRRIRKKLR] | 3.9 | 3.9 | 3.9 | >260.3 | >260.3 | >260.3 | 16.3 | 1.0 | 0.5 | 8.1 | 8.1 | 8.1 | 4.1 | 8.1 | 8.1 | 8.1 | 4.1 | 4.1 | 16.3 | 32.5 | antimicrobial activity after 24 hours: MIC [19]: 2.0 µM; antimicrobial activity after 24 hours: MIC [20]: 8.1 µM |
| RKKKRKVLALKLAGLDI [sample 14, RKKKRKVLALKLAGLDI] | 3.9 | 1.0 | 1.9 | 128.2 | 64.1 | 32.0 | 4.0 | 1.0 | 1.0 | 8.0 | 8.0 | 32.0 | 4.0 | 64.1 | 32.0 | 16.0 | 32.0 | >256.3 | 16.0 | 16.0 | antimicrobial activity (MIC) E. coli after 24h [1]: 3.9 µM; antimicrobial activities (in words) [22]: high antimicrobial activities |
| RKKKRKVRKKKRKV [sample 20, RKKKRKVRKKKRKV] | 1.9 | 1.9 | 1.9 | 133.9 | 133.9 | >267.9 | 16.7 | 2.1 | 4.2 | 8.4 | 8.4 | 4.2 | 8.4 | 8.4 | 4.2 | 4.2 | 4.2 | 8.4 | 33.5 | 33.5 | antimicrobial activity (MIC) E. coli after 24h [1]: 1.9 µM; antimicrobial activity after 24 hours: MIC [19]: 4.2 µM; antimicrobial activity after 24 hours: MIC [20]: 8.4 µM |
